In PubChem BioAssay AID1963867 (Molecular Pharmacology Branch, DTP, NCI, 2024):

Test system: KRAS-mutant PDC tumor spheroid with HUVEC/MSC, viability
Experiment: Anticancer human tumor 327498-153-R-J2-PDC patient-derived uterine carcinosarcoma cell line growth inhibition [KRAS2]
Conditions: for IC50: curve of first compound; for viability, T/C: stronger effect = lower value
Text: Multicellular complex tumor spheroid response to RAS pathway inhibitors in combination with a targeted agents in patient-derived cell lines with oncogenic KRAS variants from multiple cancer types
A high-throughput screen of multi-cell type tumor spheroids was designed to identify active combinations of targeted small molecules and KRAS pathway inhibitors. Complex spheroids include a stromal component modeled by human endothelial cells (HUVEC) and fibroblasts modeled by human mesenchymal stem cells (MSCs). The concentration ranges selected for each drug and investigational agent were based upon clinically achievable concentrations if the clinical Cmax of the agent was known.
Compounds. The drugs and investigational agents: BI-3406 (NSC825286), BAY-293 (NSC824723), batoprotafib (TNO155; NSC825523), sotorasib (AMG 510; NSC818433), MRTX1257 (NSC819558), elimusertib (BAY 1895344; NSC800525), molibresib (GSK525762; NSC774829), temuterkib (LY3214996; NSC803410), venetoclax (NSC766270), alisertib (NSC759677), olaparib (NSC753686), talazoparib (NSC767125), erdafitinib (NSC781556), ipatasertib (NSC767898), cabozantinib (NSC761068), nintedanib (NSC756659), abemaciclib (NSC768073), docetaxel (NSC628503), trametinib (NSC758246), and sapanisertib (NSC764658) were obtained from the National Cancer Institute (NCI) Developmental Therapeutics Program Chemical Repository. The FDA-approved anticancer drug set is available from the Developmental Therapeutics Program. […] The stock solutions were prepared in dimethyl sulfoxide (DMSO, Sigma-Aldrich, St. Louis, MO, cat. D2650) at 800-fold the tested concentration and stored at -70 degrees C prior to their use. All drugs and investigational agents were tested over a range starting from a high concentration at or near the clinical Cmax and decreasing in half-log increments. If the clinical Cmax for an agent had not been determined, the highest concentration tested was 10 microM.
Cell Culture. All cells were maintained in an incubator at 37 degrees C and 5% CO2 with 95% humidity. The PDC lines were cultured according to standard operating procedures established by the NCI PDMR (https://pdmr.cancer.gov/sops/default.htm). Briefly, all PDCs were thawed and cultured in Matrigel-coated flasks prepared with a working solution of 1X Ham's F-12 nutrient mix, without supplementation (Invitrogen, Waltham, MA, cat. 11765054), 100 U/mL penicillin-streptomycin (Invitrogen, cat. 15140122), and 2.5% Matrigel (Corning Inc., Corning, NY, cat. 354248) for the first three passages. All PDCs were cultured in complete DMEM/F-12 media containing advanced DMEM/F-12 (Invitrogen, cat. 12634028), 4.9% defined fetal bovine serum, heat inactivated (HyClone Laboratories Inc., Logan, UT, cat. SH30070.03HI), 389 ng/mL hydrocortisone (Sigma-Aldrich, cat. H4001), 9.7 ng/mL human EGF recombinant protein (Invitrogen, cat. PHG0313), 23.4 microg/mL adenine (Sigma-Aldrich, cat. A2786), 97.3 U/mL penicillin-streptomycin (Invitrogen, cat. 15140122), 1.9 mM L-glutamine (Invitrogen, cat. 25030081), and 9.7 microM Y-27632 dihydrochloride (Tocris Bioscience, Bristol, United Kingdom, cat. 1254). The PDCs were cultured in complete DMEM/F12 media without 9.7 microM Y-27632 dihydrochloride for at least two passages prior to the screen. The established cell line HOP-62 was cultured in RPMI 1640 medium, HEPES (Invitrogen, cat. 22400105) with 10% defined fetal bovine serum (HyClone Laboratories Inc., cat. SH30070.03) and 2 mM L-glutamine (Invitrogen, cat. 25030081). The pooled donor HUVEC were cultured in endothelial cell growth medium 2 (PromoCell, Heidelberg, Germany, cat. C-22011) and the hMSC were cultured in mesenchymal stem cell growth medium 2 (PromoCell, cat. C-28009). For all experiments, HUVEC and hMSC were used at passages </=5, while the malignant cell lines were used at passages </=15. […]

[1] = second compound 0.1 µM, first compound 0.0316 µM
[2] = second compound 0.1 µM, first compound 0.1 µM
[3] = second compound 0.1 µM, first compound 0.316 µM
[4] = second compound 0.1 µM, first compound 1 µM
[5] = second compound 0.1 µM, first compound 3.16 µM
[6] = second compound 0.1 µM, first compound 10 µM
[7] = second compound 0.316 µM, first compound 0.0316 µM
[8] = second compound 0.316 µM, first compound 0.1 µM
[9] = second compound 0.316 µM, first compound 0.316 µM
[10] = second compound 0.316 µM, first compound 1 µM
[11] = second compound 0.316 µM, first compound 3.16 µM
[12] = second compound 0.316 µM, first compound 10 µM
[13] = second compound 1 µM, first compound 0.0316 µM
[14] = second compound 1 µM, first compound 0.1 µM
[15] = second compound 1 µM, first compound 0.316 µM
[16] = second compound 1 µM, first compound 1 µM
[17] = second compound 1 µM, first compound 3.16 µM
[18] = second compound 1 µM, first compound 10 µM
[19] = second compound 3.16 µM, first compound 0.0316 µM
[20] = second compound 3.16 µM, first compound 0.1 µM
[21] = second compound 3.16 µM, first compound 0.316 µM
[22] = second compound 3.16 µM, first compound 1 µM
[23] = second compound 3.16 µM, first compound 3.16 µM
[24] = second compound 3.16 µM, first compound 10 µM
[25] = second compound 10 µM, first compound 0.0316 µM
[26] = second compound 10 µM, first compound 0.1 µM
[27] = second compound 10 µM, first compound 0.316 µM
[28] = second compound 10 µM, first compound 1 µM
[29] = second compound 10 µM, first compound 3.16 µM
[30] = second compound 10 µM, first compound 10 µM
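Also: spheroids exposed to agents for seven days before reading.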
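For viability, T/C in this document: 100% = DMSO vehicle wells so lower means fewer viable cells.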

CC(C)NCC(C(=O)N1CCN(c2ncnc3c2C(C)CC3O)CC1)c1ccc(Cl)cc1 (stereo not given) + C=CC(=O)N1CCN(c2nc(OCC3CCCN3C)nc3c2CCN(c2cccc4cccc(C)c24)C3)CC1CC#N
IC50 (second compound 0.0316 µM): 66.9 nM | IC50 (second compound 0.1 µM): < 31.6 nM | IC50 (second compound 0.316 µM): < 31.6 nM | IC50 (second compound 1 µM): < 31.6 nM | IC50 (second compound 3.16 µM): < 31.6 nM | viability, T/C (second compound 0.0316 µM, first compound 0.0316 µM): 59.5% | viability, T/C (second compound 0.0316 µM, first compound 0.1 µM): 44.3% | viability, T/C (second compound 0.0316 µM, first compound 0.316 µM): 32.8% | viability, T/C (second compound 0.0316 µM, first compound 1 µM): 22.8% | viability, T/C (second compound 0.0316 µM, first compound 3.16 µM): 15.5% | viability, T/C (second compound 0.0316 µM, first compound 10 µM): 9.69% | viability, T/C [1]: 48.7% | viability, T/C [2]: 32.4% | viability, T/C [3]: 22.1% | viability, T/C [4]: 15.7% | viability, T/C [5]: 12.7% | viability, T/C [6]: 11.4% | viability, T/C [7]: 42.5% | viability, T/C [8]: 29.8% | viability, T/C [9]: 18.3% | viability, T/C [10]: 13.5% | viability, T/C [11]: 12.3% | viability, T/C [12]: 7.28% | viability, T/C [13]: 34.5% | viability, T/C [14]: 25.2% | viability, T/C [15]: 15.1% | viability, T/C [16]: 12.6% | viability, T/C [17]: 9.14% | viability, T/C [18]: 6.92% | viability, T/C [19]: 0.26% | viability, T/C [20]: 0.41% | viability, T/C [21]: 0.51% | viability, T/C [22]: 0.15% | viability, T/C [23]: 0.14% | viability, T/C [24]: 0.21%

CC1OCC2(CCN(c3cnc(Sc4ccnc(N)c4Cl)c(N)n3)CC2)C1N (stereo not given) + COc1cc2nc(C)nc(NC(C)c3cc(N)cc(C(F)(F)F)c3)c2cc1OC1CCOC1
IC50 (second compound 0.1 µM): 129 nM | IC50 (second compound 0.316 µM): 85.5 nM | IC50 (second compound 1 µM): 99.3 nM | IC50 (second compound 3.16 µM): 64.8 nM | IC50 (second compound 10 µM): < 31.6 nM | viability, T/C [1]: 72.8% | viability, T/C [2]: 46.9% | viability, T/C [3]: 44.7% | viability, T/C [4]: 34.4% | viability, T/C [5]: 29.3% | viability, T/C [6]: 23.6% | viability, T/C [7]: 61.6% | viability, T/C [8]: 47.5% | viability, T/C [9]: 39.8% | viability, T/C [10]: 32.3% | viability, T/C [11]: 29.6% | viability, T/C [12]: 27.8% | viability, T/C [13]: 61.6% | viability, T/C [14]: 50.2% | viability, T/C [15]: 39.6% | viability, T/C [16]: 32.8% | viability, T/C [17]: 27.8% | viability, T/C [18]: 22.7% | viability, T/C [19]: 58% | viability, T/C [20]: 43.3% | viability, T/C [21]: 39.6% | viability, T/C [22]: 28.7% | viability, T/C [23]: 23.5% | viability, T/C [24]: 23.7% | viability, T/C [25]: 49.5% | viability, T/C [26]: 37.5% | viability, T/C [27]: 31.2% | viability, T/C [28]: 25.2% | viability, T/C [29]: 25.3% | viability, T/C [30]: 16.2%

CC(C)n1nc(-c2ccc3oc(N)nc3c2)c2c(N)ncnc21 + COc1cc2nc(C)nc(NC(C)c3cc(N)cc(C(F)(F)F)c3)c2cc1OC1CCOC1
IC50 (second compound 0.1 µM): 4.34 nM | IC50 (second compound 0.316 µM): 2.29 nM | IC50 (second compound 1 µM): 1.98 nM | IC50 (second compound 3.16 µM): 0.824 nM | IC50 (second compound 10 µM): < 0.316 nM | viability, T/C (second compound 0.1 µM, first compound 0.000316 µM): 77.5% | viability, T/C (second compound 0.1 µM, first compound 0.001 µM): 71.7% | viability, T/C (second compound 0.1 µM, first compound 0.00316 µM): 59.1% | viability, T/C (second compound 0.1 µM, first compound 0.01 µM): 27.3% | viability, T/C [1]: 10.2% | viability, T/C [2]: 6.27% | viability, T/C (second compound 0.316 µM, first compound 0.000316 µM): 71.5% | viability, T/C (second compound 0.316 µM, first compound 0.001 µM): 60.4% | viability, T/C (second compound 0.316 µM, first compound 0.00316 µM): 46.5% | viability, T/C (second compound 0.316 µM, first compound 0.01 µM): 23.3% | viability, T/C [7]: 8.8% | viability, T/C [8]: 6.67% | viability, T/C (second compound 1 µM, first compound 0.000316 µM): 60.2% | viability, T/C (second compound 1 µM, first compound 0.001 µM): 63.7% | viability, T/C (second compound 1 µM, first compound 0.00316 µM): 40.1% | viability, T/C (second compound 1 µM, first compound 0.01 µM): 26.3% | viability, T/C [13]: 8.62% | viability, T/C [14]: 6.87% | viability, T/C (second compound 3.16 µM, first compound 0.000316 µM): 52.6% | viability, T/C (second compound 3.16 µM, first compound 0.001 µM): 50.1% | viability, T/C (second compound 3.16 µM, first compound 0.00316 µM): 36.1% | viability, T/C (second compound 3.16 µM, first compound 0.01 µM): 17.1% | viability, T/C [19]: 7.65% | viability, T/C [20]: 4.15% | viability, T/C (second compound 10 µM, first compound 0.000316 µM): 38.8% | viability, T/C (second compound 10 µM, first compound 0.001 µM): 35.5% | viability, T/C (second compound 10 µM, first compound 0.00316 µM): 23.4% | viability, T/C (second compound 10 µM, first compound 0.01 µM): 17.4% | viability, T/C [25]: 3.51% | viability, T/C [26]: 1.94%

CCNC(=O)CC1N=C(c2ccc(Cl)cc2)c2cc(OC)ccc2-n2c(C)nnc21 (stereo not given) + CC1OCC2(CCN(c3cnc(Sc4ccnc(N)c4Cl)c(N)n3)CC2)C1N
IC50 (second compound 0.1 µM): 346 nM | IC50 (second compound 0.316 µM): 102 nM | IC50 (second compound 1 µM): < 31.6 nM | IC50 (second compound 3.16 µM): < 31.6 nM | IC50 (second compound 10 µM): < 31.6 nM | viability, T/C [1]: 64.3% | viability, T/C [2]: 68% | viability, T/C [3]: 49.8% | viability, T/C [4]: 37.8% | viability, T/C [5]: 38.8% | viability, T/C [6]: 27.5% | viability, T/C [7]: 51.8% | viability, T/C [8]: 51.5% | viability, T/C [9]: 37.9% | viability, T/C [10]: 27.9% | viability, T/C [11]: 26.2% | viability, T/C [12]: 22.4% | viability, T/C [13]: 42% | viability, T/C [14]: 35.4% | viability, T/C [15]: 31.7% | viability, T/C [16]: 18.3% | viability, T/C [17]: 17.8% | viability, T/C [18]: 16.8% | viability, T/C [19]: 31.3% | viability, T/C [20]: 26.1% | viability, T/C [21]: 20.4% | viability, T/C [22]: 16.9% | viability, T/C [23]: 13.6% | viability, T/C [24]: 11.8% | viability, T/C [25]: 20.1% | viability, T/C [26]: 20.7% | viability, T/C [27]: 18.2% | viability, T/C [28]: 13.9% | viability, T/C [29]: 12% | viability, T/C [30]: 10.9%
